Read-outs that look alike come from different tables or passages of the source.
Experiment: Pharmacokinetics after single intravenous drip infusion, plasma LC-MS/MS
Type: in vivo, Philippine macaques
Settings: for concentration at 0.17 hr / concentration at 0.25 hr / concentration at 0.5 hr / concentration at 0.75 hr / concentration at 1 hr: intravenous, AST-3424-D6 intravenous drip infusion 0.42 mg/kg
Procedure: AST-3424 and AST-3424-D6 (i.e. the compound of formula I) were administered to Philippine macaques by intravenous drip infusion, and blood samples were collected at different appointed times. LC-MS/MS was used to determine concentrations of the test substances in plasma of the Philippine macaques after administration, and relevant pharmacokinetic parameters were calculated.
Preparation method: 0.447 ml of AST-3424 (0.2 mg/ml) and 0.481 ml of AST-3424-D6 (0.2 mg/ml) were added into 104.272 ml of the dissolvent, respectively, and mixed for 5 minutes to obtain colorless and clarified solutions with pH 7.0.
The four male Philippine macaques were purchased from Guangxi Xiongsen Primate Development Experiment Co., Ltd. All Philippine macaques were healthy with qualified medical examination and no abnormality. Three of animals were used for the experiment, and one of them was used to prepare blank plasma.
About 0.8 ml of blood samples were collected through femoral vein and anticoagulated with heparin sodium. Appointed times of blood collection were before administration, 0.17, 0.25, 0.5, 0.75, 1, 2, and 4 hours after administration.
The blood samples were placed on ice after collection. Next, plasma samples were separated by centrifugation, and centrifugation conditions were 3500 rpm for 10 minutes at 4° C. Then, the collected plasma samples were stored at −80° C. until analysis. The plasma samples were analyzed by LC-MS/MS by an analysis department of an experimental institution. Besides, Lower limit of quantifications (LLOQ) of AST-3424 and AST-3424-D6 detection were 1 ng/ml. The accuracy of analysis results of an accompanying standard curve and a quality control samples all met the relevant requirements of biological analysis (the accuracy of the quality control samples exceeding 66.7% was between 85˜115%) in a process of the sample detection.
According to average blood concentration data of each group at each appointed time, the pharmacokinetic parameters of the compounds were respectively computed by a pharmacokinetic computing software, a non-compartmental model. In addition, the pharmacokinetic parameters were AUC0-t, AUC0-∞, MRT0-∞, Cmax, Tmax, t1/2, etc. In the case of the concentrations of the samples whose concentration being lower than a lower limit of quantification, the following schemes were used to compute the pharmacokinetic parameters. The samples sampled before reaching Cmax shall be computed as zero value, while the samples sampled after reaching Cmax shall be computed as non-quantifiable (marked as “BLQ”).
After a single intravenous infusion of the compounds AST-3424 and AST-3424-D6 was administered to the Philippine macaques, the whole blood samples of the corresponding animals were collected at the appointed times. Next, the whole blood samples were processed and biologically analyzed to obtain concentrations of the compounds in the plasma at the different appointed times. Results of the assay were listed in Table 14 below, and corresponding means of the plasma-drug concentration-time curves are shown in FIG. 3.
According to the plasma-drug concentration data of each drug group, the pharmacokinetic parameters of each compound group were computed using the non-compartmental model of the pharmacokinetic computing software. The pharmacokinetic

[1] = male, Philippine macaque, plasma, 0.42 mg/kg, individual animals 101, 102, 103, read-out: Plasma-drug concentration
[2] = male, Philippine macaque, plasma, 0.42 mg/kg, read-out: Plasma-drug concentration, mean

[2H]C([2H])([2H])N(C(=O)c1cccc(Oc2cc([C@H](C)OP(=O)(N3CC3)N3CC3)ccc2[N+](=O)[O-])c1)C([2H])([2H])[2H] [AST-3424-D6]
Vz (AST-3424-D6 single intravenous infusion, Table 15 heading 0.58 mg/kg (text: 0.42 mg/kg), plasma, individual animals 101, 102, 103): 0.23679 L/kg
Integral area under the drug-time curve (AUC) compared with AST-3424, in words (Philippine macaques, FIG. 3, 0.42 mg/kg AST-3424-D6 vs 0.58 mg/kg AST-3424): smaller
AUC(0-t) (male, Philippine macaque, cynomolgus monkey, plasma, iv, 0.42 mg/kg, AST-3424-D6 single intravenous infusion, Table 15 heading 0.58 mg/kg (text: 0.42 mg/kg), plasma, individual animals 101, 102, 103, read-out: AUC(0−t)): 286 ng·h/mL
AUC(0-inf) (male, Philippine macaque, cynomolgus monkey, plasma, iv, 0.42 mg/kg, AST-3424-D6 single intravenous infusion, Table 15 heading 0.58 mg/kg (text: 0.42 mg/kg), plasma, individual animals 101, 102, 103, read-out: AUC(0−∞)): 334 ng·h/mL
clearance (male, Philippine macaque, cynomolgus monkey, plasma, iv, 0.42 mg/kg, AST-3424-D6 single intravenous infusion, Table 15 heading 0.58 mg/kg (text: 0.42 mg/kg), plasma, individual animals 101, 102, 103, read-out: Cl (converted)): 20.9 mL/min/kg
Cmax (male, Philippine macaque, cynomolgus monkey, plasma, iv, 0.42 mg/kg, AST-3424-D6 single intravenous infusion, Table 15 heading 0.58 mg/kg (text: 0.42 mg/kg), plasma, individual animals 101, 102, 103, read-out: Cmax): 485 ng/mL
MRT last (male, Philippine macaque, cynomolgus monkey, plasma, iv, 0.42 mg/kg, AST-3424-D6 single intravenous infusion, Table 15 heading 0.58 mg/kg (text: 0.42 mg/kg), plasma, individual animals 101, 102, 103, read-out: MRT(0−t)): 9 min
MRT inf (male, Philippine macaque, cynomolgus monkey, plasma, iv, 0.42 mg/kg, AST-3424-D6 single intravenous infusion, Table 15 heading 0.58 mg/kg (text: 0.42 mg/kg), plasma, individual animals 101, 102, 103, read-out: MRT(0−∞)): 9.6 min
half-life (male, Philippine macaque, cynomolgus monkey, plasma, iv, 0.42 mg/kg, AST-3424-D6 single intravenous infusion, Table 15 heading 0.58 mg/kg (text: 0.42 mg/kg), plasma, individual animals 101, 102, 103, read-out: T1/2 (converted)): 7.8 min
Vd (male, Philippine macaque, cynomolgus monkey, plasma, iv, 0.42 mg/kg, AST-3424-D6 single intravenous infusion, Table 15 heading 0.58 mg/kg (text: 0.42 mg/kg), plasma, individual animals 101, 102, 103, read-out: Vss): 0.198 L/kg
Vd (male, Philippine macaque, cynomolgus monkey, plasma, iv, 0.42 mg/kg, AST-3424-D6 single intravenous infusion, Table 15 heading 0.58 mg/kg (text: 0.42 mg/kg), plasma, individual animals 101, 102, 103, read-out: Vz): 0.234 L/kg
AUC(0-t) (male, Philippine macaque, cynomolgus monkey, plasma, iv, 0.42 mg/kg, AST-3424-D6 single intravenous infusion, Table 15 heading 0.58 mg/kg (text: 0.42 mg/kg), plasma, read-out: AUC(0−t), Mean): 302 ± 22.6 ng·h/mL
AUC(0-inf) (male, Philippine macaque, cynomolgus monkey, plasma, iv, 0.42 mg/kg, AST-3424-D6 single intravenous infusion, Table 15 heading 0.58 mg/kg (text: 0.42 mg/kg), plasma, read-out: AUC(0−∞), Mean): 315 ± 27.2 ng·h/mL
Cmax (male, Philippine macaque, cynomolgus monkey, plasma, iv, 0.42 mg/kg, AST-3424-D6 single intravenous infusion, Table 15 heading 0.58 mg/kg (text: 0.42 mg/kg), plasma, read-out: Cmax, Mean): 522 ± 46 ng/mL
MRT last (male, Philippine macaque, cynomolgus monkey, plasma, iv, 0.42 mg/kg, AST-3424-D6 single intravenous infusion, Table 15 heading 0.58 mg/kg (text: 0.42 mg/kg), plasma, read-out: MRT(0−t), Mean): 8.4 ± 0.6 min
MRT inf (male, Philippine macaque, cynomolgus monkey, plasma, iv, 0.42 mg/kg, AST-3424-D6 single intravenous infusion, Table 15 heading 0.58 mg/kg (text: 0.42 mg/kg), plasma, read-out: MRT(0−∞), Mean): 9 min
half-life (male, Philippine macaque, cynomolgus monkey, plasma, iv, 0.42 mg/kg, AST-3424-D6 single intravenous infusion, Table 15 heading 0.58 mg/kg (text: 0.42 mg/kg), plasma, read-out: T1/2, Mean (converted)): 7.2 min
Tmax (male, Philippine macaque, cynomolgus monkey, plasma, iv, 0.42 mg/kg, AST-3424-D6 single intravenous infusion, Table 15 heading 0.58 mg/kg (text: 0.42 mg/kg), plasma, read-out: Tmax, Mean): 18.6 min
Vd (male, Philippine macaque, cynomolgus monkey, plasma, iv, 0.42 mg/kg, AST-3424-D6 single intravenous infusion, Table 15 heading 0.58 mg/kg (text: 0.42 mg/kg), plasma, read-out: Vss, Mean): 0.202 L/kg
concentration at 0.17 hr [1]: 416 ng/mL
concentration at 0.17 hr [2]: 490 ng/mL
concentration at 0.25 hr [1]: 479 ng/mL
concentration at 0.25 hr [2]: 505 ng/mL
concentration at 0.5 hr [1]: 485 ng/mL
concentration at 0.5 hr [2]: 502 ng/mL
concentration at 0.75 hr [1]: 113 ng/mL
concentration at 0.75 hr [2]: 109 ng/mL
concentration at 1 hr [1]: 41 ng/mL
concentration at 1 hr [2]: 33.8 ng/mL
clearance (male, cynomolgus monkey, plasma, iv, 0.42 mg/kg, AST-3424-D6 single intravenous infusion, Table 15 heading 0.58 mg/kg (text: 0.42 mg/kg), plasma, read-out: Cl, Mean (converted)): 22.3 mL/min/kg
Vd (male, cynomolgus monkey, plasma, iv, 0.42 mg/kg, AST-3424-D6 single intravenous infusion, Table 15 heading 0.58 mg/kg (text: 0.42 mg/kg), plasma, read-out: Vz, Mean): 0.235 L/kg

From patent publication US20220395464A1, “ORALLY ADMINISTERED SOLID DOSAGE FORM DRUG” (ASCENTAWITS PHARMACEUTICALS, LTD., priority 2019, published 2022)
